#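 Growth conditions: 96-well plates. Treatment: test compound, 48 hours, 5 concentrations. Analysis: linear interpolation between bracketing concentrations; unreached endpoints set to highest concentration. Definition used: TGI = concentration required for complete inhibition of growth.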
# Experiments:
# Experiment in all cases: inhibition of tumour cell growth, NCI panel, 48 h
# [1] = tested on: ACHN renal
# [2] = tested on: MDA-MB-231 breast
# [3] = tested on: M14 melanoma
# [4] = tested on: HL-60(TB) leukemia
# [5] = tested on: NCI-H460 lung
# [6] = tested on: SF-268 CNS
# [7] = tested on: IGROV1 ovarian
# [8] = tested on: OVCAR-5 ovarian
# [9] = tested on: KM12 colon
# [10] = tested on: SF-539 CNS
# [11] = tested on: K-562 leukemia
# [12] = tested on: T-47D breast
# [13] = tested on: TK-10 renal
# [14] = tested on: MDA-MB-435
# [15] = tested on: SK-MEL-2 melanoma
# [16] = tested on: NCI-H23 lung
# [17] = tested on: HCT-15 colon
# [18] = tested on: U251 CNS
# [19] = tested on: RXF 393 renal
# [20] = tested on: HCT-116 colon
# [21] = tested on: HS 578T breast
# [22] = tested on: SK-OV-3 ovarian
# [23] = tested on: 786-0 renal
# [24] = tested on: UACC-62 melanoma
# [25] = tested on: COLO 205 colon
# [26] = tested on: NCI-H522 lung
# [27] = tested on: SW-620 colon
# [28] = tested on: MCF7 breast
# [29] = tested on: DU-145 prostate
# [30] = tested on: HOP-92 NSCLC
# [31] = tested on: HCC-2998 colon
# [32] = tested on: SNB-75 CNS
# [33] = tested on: SK-MEL-5 melanoma
# [34] = tested on: PC-3 prostate
# [35] = tested on: SN12C renal
# [36] = tested on: SNB-19 CNS
# [37] = tested on: SF-295 CNS
# [38] = tested on: UO-31 renal
# [39] = tested on: HT29 colon
# [40] = tested on: NCI/ADR-RES ovarian
# [41] = tested on: RPMI-8226 leukemia
# [42] = tested on: CAKI-1 renal
# [43] = tested on: BT-549 breast
# [44] = tested on: LOX IMVI melanoma
# [45] = tested on: CCRF-CEM leukemia
# [46] = tested on: A498 renal
# [47] = tested on: UACC-257 melanoma
# [48] = tested on: A549 NSCLC
# [49] = tested on: MALME-3M melanoma
# [50] = tested on: OVCAR-4 ovarian
# [51] = tested on: NCI-H226 lung
# [52] = tested on: MDA-N
# [53] = tested on: OVCAR-3 ovarian
# [54] = tested on: SK-MEL-28 melanoma
# [55] = tested on: OVCAR-8 ovarian
# [56] = tested on: EKVX NSCLC
# [57] = tested on: MOLT-4 leukemia
# [58] = tested on: HOP-62 NSCLC
# [59] = tested on: SR leukemia
smiles,measurement,setting,value
Cn1c(=O)[nH]n(-c2ccc3ccccc3c2)c1=O,TGI,[1],> 100 µM
same,TGI,[2],> 100 µM
same,TGI,[3],> 100 µM
same,TGI,[4],> 100 µM
same,TGI,[5],> 100 µM
same,TGI,[6],> 100 µM
same,TGI,[7],> 100 µM
same,TGI,[8],> 100 µM
same,TGI,[9],> 100 µM
same,TGI,[10],> 100 µM
same,TGI,[11],> 100 µM
same,TGI,[12],> 100 µM
same,TGI,[13],> 100 µM
same,TGI,[14],> 100 µM
same,TGI,[15],> 100 µM
same,TGI,[16],> 100 µM
same,TGI,[17],> 100 µM
same,TGI,[18],> 100 µM
same,TGI,[19],> 100 µM
same,TGI,[20],> 100 µM
same,TGI,[21],> 100 µM
same,TGI,[22],> 100 µM
same,TGI,[23],> 100 µM
same,TGI,[24],> 100 µM
same,TGI,[25],> 100 µM
same,TGI,[26],> 100 µM
same,TGI,[27],> 100 µM
same,TGI,[28],> 100 µM
same,TGI,[29],> 100 µM
same,TGI,[30],> 100 µM
same,TGI,[31],> 100 µM
same,TGI,[32],> 100 µM
same,TGI,[33],> 100 µM
same,TGI,[34],> 100 µM
same,TGI,[35],> 100 µM
same,TGI,[36],> 100 µM
same,TGI,[37],> 100 µM
same,TGI,[38],> 100 µM
same,TGI,[39],> 100 µM
same,TGI,[40],> 100 µM
same,TGI,[41],> 100 µM
same,TGI,[42],> 100 µM
same,TGI,[43],> 100 µM
same,TGI,[44],> 100 µM
same,TGI,[45],> 100 µM
same,TGI,[46],> 100 µM
same,TGI,[47],> 100 µM
same,TGI,[48],> 100 µM
same,TGI,[49],> 100 µM
same,TGI,[50],> 100 µM
same,TGI,[51],> 100 µM
same,TGI,[52],> 100 µM
same,TGI,[53],> 100 µM
same,TGI,[54],> 100 µM
same,TGI,[55],> 100 µM
same,TGI,[56],> 100 µM
COc1cccc(OC/C(N=Cc2ccncc2)=N/NC(=O)c2ccncc2)c1,TGI,[1],> 100 µM
same,TGI,[2],> 100 µM
same,TGI,[3],> 100 µM
same,TGI,[4],> 100 µM
same,TGI,[5],> 100 µM
same,TGI,[6],> 100 µM
same,TGI,[7],> 100 µM
same,TGI,[57],> 100 µM
same,TGI,[8],> 100 µM
same,TGI,[9],> 100 µM
same,TGI,[10],> 100 µM
same,TGI,[11],> 100 µM
same,TGI,[12],> 100 µM
same,TGI,[13],> 100 µM
same,TGI,[14],> 100 µM
same,TGI,[15],> 100 µM
same,TGI,[58],> 100 µM
same,TGI,[16],> 100 µM
same,TGI,[17],> 100 µM
same,TGI,[18],> 100 µM
same,TGI,[19],> 100 µM
same,TGI,[20],> 100 µM
same,TGI,[21],> 100 µM
same,TGI,[22],> 100 µM
same,TGI,[23],> 100 µM
same,TGI,[24],> 100 µM
same,TGI,[25],> 100 µM
same,TGI,[26],> 100 µM
same,TGI,[27],> 100 µM
same,TGI,[28],> 100 µM
same,TGI,[29],> 100 µM
same,TGI,[30],> 100 µM
same,TGI,[31],> 100 µM
same,TGI,[34],> 100 µM
same,TGI,[35],> 100 µM
same,TGI,[36],> 100 µM
same,TGI,[37],> 100 µM
same,TGI,[39],> 100 µM
same,TGI,[40],> 100 µM
same,TGI,[41],> 100 µM
same,TGI,[42],> 100 µM
same,TGI,[43],> 100 µM
same,TGI,[44],> 100 µM
same,TGI,[45],> 100 µM
same,TGI,[46],> 100 µM
same,TGI,[47],> 100 µM
same,TGI,[48],> 100 µM
same,TGI,[49],> 100 µM
same,TGI,[50],> 100 µM
same,TGI,[51],> 100 µM
same,TGI,[52],> 100 µM
same,TGI,[53],> 100 µM
same,TGI,[54],> 100 µM
same,TGI,[55],> 100 µM
same,TGI,[56],> 100 µM
Clc1ccc(Cc2nc3ccccc3nc2-c2cccc(Cl)c2)cc1,TGI,[1],3.45 µM
same,TGI,[2],10.4 µM
same,TGI,[3],5.06 µM
same,TGI,[4],6.29 µM
same,TGI,[5],37.8 µM
same,TGI,[6],44.4 µM
same,TGI,[7],3.66 µM
same,TGI,[57],6.82 µM
same,TGI,[8],21.2 µM
same,TGI,[9],16.5 µM
same,TGI,[10],4.92 µM
same,TGI,[11],5.79 µM
same,TGI,[12],> 100 µM
same,TGI,[13],25.9 µM
same,TGI,[14],4.09 µM
same,TGI,[15],8.11 µM
same,TGI,[58],38.1 µM
same,TGI,[16],27 µM
same,TGI,[17],3.46 µM
same,TGI,[18],16.7 µM
same,TGI,[19],4.66 µM
same,TGI,[20],3.29 µM
same,TGI,[21],12.4 µM
same,TGI,[22],31.8 µM
same,TGI,[23],3.63 µM
same,TGI,[24],3.46 µM
same,TGI,[25],7.88 µM
same,TGI,[26],3.41 µM
same,TGI,[27],3.71 µM
same,TGI,[28],13 µM
same,TGI,[29],40.6 µM
same,TGI,[30],5.14 µM
same,TGI,[31],3.65 µM
same,TGI,[33],18.1 µM
same,TGI,[34],8.18 µM
same,TGI,[35],8.63 µM
same,TGI,[36],3.85 µM
same,TGI,[37],32.6 µM
same,TGI,[38],3.32 µM
same,TGI,[39],6 µM
same,TGI,[40],8.96 µM
same,TGI,[41],2.14 µM
same,TGI,[42],8.51 µM
same,TGI,[43],16.7 µM
same,TGI,[44],3.58 µM
same,TGI,[45],0.174 µM
same,TGI,[47],39.3 µM
same,TGI,[48],32.8 µM
same,TGI,[49],8.24 µM
same,TGI,[50],3.24 µM
same,TGI,[51],38.4 µM
same,TGI,[52],5.64 µM
same,TGI,[53],17.4 µM
same,TGI,[55],14.2 µM
same,TGI,[56],31.9 µM
CCn1c(SCc2nnc(Nc3ccccc3)s2)nc2ccccc2c1=O,TGI,[1],9.16 µM
same,TGI,[2],10.2 µM
same,TGI,[3],> 61.4 µM
same,TGI,[5],4.77 µM
same,TGI,[6],22.3 µM
same,TGI,[7],15.7 µM
same,TGI,[57],> 100 µM
same,TGI,[8],31.1 µM
same,TGI,[9],> 48.9 µM
same,TGI,[10],19.3 µM
same,TGI,[11],> 73.2 µM
same,TGI,[12],27 µM
same,TGI,[13],12.3 µM
same,TGI,[14],> 100 µM
same,TGI,[15],32 µM
same,TGI,[58],12.5 µM
same,TGI,[16],19.4 µM
same,TGI,[17],> 100 µM
same,TGI,[18],5.3 µM
same,TGI,[19],19.1 µM
same,TGI,[20],3.97 µM
same,TGI,[21],8.56 µM
same,TGI,[22],7.66 µM
same,TGI,[23],3.97 µM
same,TGI,[24],11.9 µM
same,TGI,[25],43.2 µM
same,TGI,[26],7.63 µM
same,TGI,[27],> 68.3 µM
same,TGI,[28],> 93.6 µM
same,TGI,[29],36.5 µM
same,TGI,[30],9.11 µM
same,TGI,[31],31.7 µM
same,TGI,[32],14.2 µM
same,TGI,[33],32.5 µM
same,TGI,[34],> 67.4 µM
same,TGI,[35],18.2 µM
same,TGI,[36],13.4 µM
same,TGI,[37],6.87 µM
same,TGI,[38],12.1 µM
same,TGI,[39],12.5 µM
same,TGI,[40],10.9 µM
same,TGI,[41],37.1 µM
same,TGI,[42],9.04 µM
same,TGI,[43],26.7 µM
same,TGI,[44],25.4 µM
same,TGI,[45],> 85.7 µM
same,TGI,[46],3.92 µM
same,TGI,[47],51.9 µM
same,TGI,[48],19.3 µM
same,TGI,[49],14 µM
same,TGI,[50],5 µM
same,TGI,[51],7.75 µM
same,TGI,[52],> 52.1 µM
same,TGI,[53],41.2 µM
same,TGI,[54],60.8 µM
same,TGI,[55],5.09 µM
same,TGI,[56],17.3 µM
same,TGI,[59],61.4 µM
